Laboratory results reported in patent US20230125249A1 (FIRMENICH SA, priority 2017, published 2023).
Read-outs that look alike come from different tables or passages of the source. Blank lines part the entries; values can stand above or below the molecule they belong to.

Experiments:
[1] = target: T1, OR5AN1 olfactory receptor (Homo sapiens, UniProt Q8NGI8); experiment: MUSCENONE®/musk dose-response on OR5AN1 in presence and absence of putative modulator (EC50 shift, span); format: cell-based; conditions: FIG. 6; MUSCENONE® dose response in the presence of 250 μM compound
T1 construct: expressed in transfected cells
T1 sequence (Q8NGI8 1-311): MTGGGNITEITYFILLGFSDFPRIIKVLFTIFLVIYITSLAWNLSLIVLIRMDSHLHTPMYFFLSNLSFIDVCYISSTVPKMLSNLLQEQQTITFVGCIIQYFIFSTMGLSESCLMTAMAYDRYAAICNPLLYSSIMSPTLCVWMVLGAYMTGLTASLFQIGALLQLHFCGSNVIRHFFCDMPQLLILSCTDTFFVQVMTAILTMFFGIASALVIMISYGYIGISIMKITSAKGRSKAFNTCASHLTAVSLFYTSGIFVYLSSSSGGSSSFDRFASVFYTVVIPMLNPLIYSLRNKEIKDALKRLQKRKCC

[2] = target: T1, OR5AN1 olfactory receptor; experiment: Single point binary mixture screen (MUSCENONE® + test compound) on a cell line expressing OR5AN1; format: cell-based; conditions: MUSCENONE® 10 μM + test compound 500 μM, compared to MUSCENONE® alone
Procedure: 481 binary mixtures were created by mixing a MUSCENONE® stock solution with a stock solution of each test compound to a final concentration 10 and 500 μM, respectively. Stock solutions were made of compounds dissolved in pure DMSO. Each mixture was presented to a cell line expressing the OR5AN1 olfactory receptor. The final concentration of DMSO in each binary mixture was 0.17%, and had no visible effect on the cells
The resulting activation was then measured and compared to MUSCENONE® alone (defining the baseline of the enhancement assay). The quality of the HTS process was determined and the window variability and signal reliability were assessed by calculating the Z′ value of each plate. Twenty hits were obtained, five of which were macrocyclic ketone and nitromusk OR5AN1 olfactory receptor agonists (hit n° 1, 2, 3, 5 and 9). These OR5AN1 olfactory receptor agonists further confirmed that the dynamic range of the assay window was sufficient (as the responses recorded were well above baseline) and thus likely sensitive enough to detect even low levels of putative enhancement.

[3] = target: T1, OR5AN1 olfactory receptor; experiment: Allosteric EC50 shift analysis: MUSCENONE® dose response with serial concentrations of enhancer; format: cell-based; conditions: same method as for TDA
Procedure: The level of enhancement of the OR5AN1 olfactory receptor activation was evaluated at distinct concentrations of the enhancer. […] The curves were obtained by applying the simplified Allosteric EC50 shift effect equation (available in Prism5, v. 5.02) derived from the ternary complex interaction model.

[4] = Odor detection threshold (ODT) forced-choice triangle test with background odor; format: in vivo, human
Procedure: Sensitivity of human individuals to MUSCENONE® was evaluated by performing an odor detection threshold (ODT) test. The ODT test consisted of identifying the concentration for which 50% of the panelists are able to determine which of three containers contains the target compound Muscenone® in a forced-choice triangle tests. Two tests were performed to calculate the ODT in mixtures containing Muscenone® plus a perceivable background odor of chemically similar molecules a) the enhancer tridecylenic aldehyde and b) the non-enhancing volatile compound, nonanal.
27 panelists were given a series of triangle tests with increasing concentration of MUSCENONE® in the presence of nonanal at a concentration of 0.1%. Within each triangle test, the three samples contained nonanal at 0.1% and one sample also contained MUSCENONE®. In each triangle test, the panelists were asked to identify the one sample that was different from the other two samples. The ODT was calculated by fitting a non-linear regression model onto the data and calculating the MUSCENONE® concentration at which the proportion of correct responses was equal to ⅔ (the midpoint between chance rate ⅓ and all correct answers 1). […]

[5] = tested on: OR5AN1 allele 4; experiment: Cell based assay of hypofunctional OR5AN1 allele 4 with and without enhancer; parameters: species or system human
[6] = target: T1, OR5AN1 olfactory receptor; experiment: Response of the OR5AN1 olfactory receptor to musk compounds (HTRF); format: cell-based
[7] = tested on: OR5AN1 allele 3; experiment: Cell based assay of hypofunctional OR5AN1 allele 3 with and without enhancer; parameters: species or system human
[8] = target: T1, OR5AN1 olfactory receptor; experiment: MUSCENONE®/musk dose-response on OR5AN1 in presence and absence of putative modulator (EC50 shift, span); format: cell-based; conditions: MUSCENONE® dose response in the presence of 250 μM compound
Procedure: Next, two parallel dose-response experiments to confirm the true enhancement properties of the potential candidates were performed. First, a dose-response of each individual candidate was performed to determine if it was an agonist by itself.
The resulting enhancement was quantified by means of EC50-fold shift (potency increase) and the efficacy span ratio (efficacy increase).
The EC50-fold shift was obtained by dividing the EC50 of MUSCENONE® +compound by the reference EC50 MUSCENONE® alone. The span ratio was obtained by dividing the span of MUSCENONE®+compound by the reference span of MUSCENONE® alone.

Inhibition of the activity of the OR5AN1 olfactory receptor [1]: inhibit the activity
Molecule: CC1=CCCC2(CCCCC2)C1/C=C/C=O (racemic) [(+−)-(2E)-3-(2-methylspiro [5.5]undec-2-en-1-yl) acrylaldehyde]

Hit Type [2]: Agonist
Molecule: CC(C)=CCCC(C)C/C=C/C=O (racemic) [Compound 5, (+−)-(2E)-5,9-dimethyl-2,8-decadienal]

Inhibition of the activity of the OR5AN1 olfactory receptor [1]: inhibit the activity
Molecule: CC12C3CC(CC31)[C@]2(C)C/C=C/C=O (single isomer, unassigned; (+))

Inhibition of the activity of the OR5AN1 olfactory receptor [1]: inhibit the activity
Molecule: CC(C)c1cccc(C(C)CC=O)c1 (stereo not drawn) [3-(3-propan-2-ylphenyl)butanal]

Molecule: O=CCCc1ccccc1 [3-phenylpropanal]
Inhibition of the activity of the OR5AN1 olfactory receptor [1]: inhibit the activity

Inhibition of the activity of the OR5AN1 olfactory receptor [1]: inhibit the activity
Molecule: CC/C=C\CC/C=C/CO [(E)-2-(Z)-6-nonadien-1-ol]

Inhibition of the activity of the OR5AN1 olfactory receptor [1]: inhibit the activity
Molecule: CCCCCCCCC/C=C/C(=O)O [(E)-2-dodecenoic acid]

Molecule: CCC/C=C/C=O [(E)-2-hexenal]
Inhibition of the activity of the OR5AN1 olfactory receptor [1]: inhibit the activity

Inhibition of the activity of the OR5AN1 olfactory receptor [1]: inhibit the activity
Molecule: CCCCCCCCCC/C=C/C(=O)O [(E)-2-tridecenoic acid]

Inhibition of the activity of the OR5AN1 olfactory receptor [1]: inhibit the activity
Molecule: CCCCCCCCCC/C=C/CO [(E)-2-tridecenol]

Inhibition of the activity of the OR5AN1 olfactory receptor [1]: inhibit the activity
Molecule: CCCCCCCC/C=C/C(=O)O [(E)-2-undecenoic acid]

Inhibition of the activity of the OR5AN1 olfactory receptor [1]: inhibit the activity
Molecule: COc1ccccc1/C=C/C=O [(E)-3-(2-methoxyphenyl)prop-2-enal]

Inhibition of the activity of the OR5AN1 olfactory receptor [1]: inhibit the activity
Molecule: CCCCC/C=C/CCC=O [(E)-dec-4-enal]

Inhibition of the activity of the OR5AN1 olfactory receptor [1]: inhibit the activity
Molecule: CC/C=C\CCCCCO [(Z)-6-nonen-1-ol]

Molecule: CCCCCCCC=CC=O [Compound 2-decenal, 2-decenal]
Allosteric modulation properties [3]: allosteric modulation properties similar to TDA

Hit Type [2]: Enhancement
Molecule: CCCCCC/C=C/C=O [Compound 6]

Molecule: CCCCCCCCCCC/C=C/C=O [Compound 7, (E)-2-tetradecenal]
Hit Type [2]: Agonist

Molecule: CCCCCCC/C=C/C=O [Compound 11]
Hit Type [2]: Enhancement

Molecule: CCC/C=C/C=O [Compound 12]
Hit Type [2]: Enhancement

Hit Type [2]: Enhancement
Molecule: COC(=O)c1ccccc1OC [Compound 16]

Molecule: CC(=O)c1ccccc1N [Compound 20]
Hit Type [2]: Enhancement

EC50 ([5]; allele 4, absence of enhancer): 10.1 µM | EC50 ([5]; allele 4, in the presence of 250 μM tridecylenic aldehyde): 1.6 µM | Activation of the OR5AN1 olfactory receptor ([6]; FIG. 1a): specifically activated | Span (HTRF ratio) ([6]; efficacy, maximum span): 3629 HTRF ratio | EC50 ([7]; allele 3, absence of enhancer): 9 µM | EC50 ([7]; allele 3, in the presence of 250 μM tridecylenic aldehyde): 1.5 µM
Molecule: CC1CC=CCCCCCCCCCC(=O)C1 (stereo not drawn) [MUSCENONE®]
ODT (odor detection threshold) ([4]; in the presence of nonanal at 0.1%, 27 panelists): 0.93% | ODT (odor detection threshold) ([4]; in the presence of tridecylenic aldehyde at 0.1%, 28 panelists): 0.09% | Activity (span) ([5]; allele 4, absence of enhancer): 2328 relative fluorescent HTRF units | Activity (span) ([5]; allele 4, in the presence of tridecylenic aldehyde): 5026 relative fluorescent HTRF units | Activity (span) ([7]; allele 3, absence of enhancer): 2311 relative fluorescent HTRF units | Activity (span) ([7]; allele 3, in the presence of tridecylenic aldehyde): 4663 relative fluorescent HTRF units

Activation of the OR5AN1 olfactory receptor ([6]; FIG. 1a): specifically activated | Span (HTRF ratio) ([6]; efficacy, maximum span): 2979 HTRF ratio
Molecule: C[C@@H]1CCCCCCCCCCCCC(=O)C1 [Muscone]

Molecule: CC(=O)c1c(C)c([N+](=O)[O-])c(C(C)(C)C)c([N+](=O)[O-])c1C [Musk ketone]
Activation of the OR5AN1 olfactory receptor ([6]; FIG. 1a): specifically activated | Span (HTRF ratio) ([6]; efficacy, maximum span): 4312 HTRF ratio

Molecule: Cc1c([N+](=O)[O-])c(C)c([N+](=O)[O-])c(C(C)(C)C)c1[N+](=O)[O-] [Musk xylol]
Activation of the OR5AN1 olfactory receptor [6]: specifically activated | Span (HTRF ratio) [6]: 4217 HTRF ratio

Inhibition of the activity of the OR5AN1 olfactory receptor [1]: inhibit the activity
Molecule: CC/C(=C\CC1CC=C(C)C1(C)C)CO (stereo not drawn) [bacdanol]

Molecule: SCc1ccco1 [furfuryl mercaptan]
Inhibition of the activity of the OR5AN1 olfactory receptor [1]: inhibit the activity

OR5AN1 Musk response enhancement [8]: non-enhancing
Molecule: CCCCCCCCC=O [nonanal, reference compound]

Molecule: CCCCCC/C=C/C=O [nonylenic aldehyde]
Allosteric modulation properties [3]: allosteric modulation properties similar to TDA

Inhibition of the activity of the OR5AN1 olfactory receptor [1]: inhibit the activity
Molecule: CCCCCCCC=O [octanal]

Inhibition of the activity of the OR5AN1 olfactory receptor [1]: inhibit the activity
Molecule: CCCCCOC(=O)CCCC [pentyl valerate]

Inhibition of the activity of the OR5AN1 olfactory receptor [1]: inhibit the activity
Molecule: CC1C2CC(CC2C2CCCC(O)C2)C1(C)C (stereo not drawn) [sandenol]

Inhibition of the activity of the OR5AN1 olfactory receptor [1]: inhibit the activity
Molecule: C/C(C=O)=C\CCc1ccc(C(C)(C)C)cc1 [trans-5-(4-tert-butylphenyl)-2-methylpent-2-enal]

OR5AN1 Musk response enhancement [8]: absence of enhancement
Molecule: C=CCCCCCCCCC(=O)O [undecenoic acid]

Hit Type [2]: Agonist
Molecule: (2E)-7,8-dimethyl-2,7-nonadienal [Compound 1]

Hit Type [2]: agonists
Molecule: (2E)-7-methyl-2,6-octadienal [Compound 3]

Hit Type [2]: agonists
Molecule: Trans-2,6,7-dimethyl-2,6-octadienal [Compound 9]
